Measured values: patent US12486228B2, “N-substituted indoles and use as allosteric modulators of cannabinoid receptors” (priority 2018, dated 2025)
Read-outs that look alike come from different tables or passages of the source.

Key:
hCB1 [1] = target: T1, hCB1 (Homo sapiens, UniProt P21554); assay: cell-based; set-up: host or cells: CHO-K1
Procedure: HitHunter cAMP assay: Inhibition of forskolin-stimulated cAMP was determined using the DiscoveRx HitHunter assay in hCB1R CHO-K1 cells. Cells (20,000 cells/well in low-volume 96 well plates) were incubated overnight in Opti-MEM (Invitrogen) containing 1% FBS at 37° C. and 5% CO2. Following this, Opti-MEM media was removed and replaced with cell assay buffer (DiscoveRx) and cells were co-treated at 37° C. with 10 μM forskolin and hCB1R ligands (0.10 nM-10 μM) for 30 min or 90 min cAMP antibody solution and cAMP working detection solutions were then added to cells according to the manufacturer's directions (DiscoveRx®) and cells were incubated for 60 min at room temperature. cAMP solution A was added according to the manufacturer's directions (DiscoveRx®) and cells were incubated for an additional 60 min at room temperature before chemiluminescence was measured on a Cytation 5 plate reader (top read, gain 200, integration time 10,000 ms).

CB2 [2] = target: T2, CB2 (Homo sapiens, UniProt P34972); assay: cell-based; conditions: for EC50 / Emax: CB2, agonist mode; for EC50: read-out: CB2 Agonist mode β-Arrestin EC50; for Emax: read-out: CB2 Agonist mode β-Arrestin Emax
hCB1 [3] = target: T1, hCB1; assay: cell-based; set-up: host or cells: CHO-K1 PathHunter
Procedure: PathHunter CB1 β-Arrestin Assay: Chinese hamster ovary K1 (CHO-K1)-PathHunter hCB1 β-arrestin cells (DiscoveRx, Fremont, CA) were seeded at 5000 cells/well in 384-well plates 24 h before use and incubated at 37° C., 5% CO2. Compounds were dissolved in dimethyl sulfoxide (DMSO) and diluted in optimized cell culture (OCC) media. Agonist EC80 was determined directly from an agonist dose—response curve (data not shown). […] Five microliters of allosteric modulator or vehicle solution was added to each well at the appropriate concentrations and incubated for 30 min. Five microliters of agonist was then added to each well followed by a 90 min incubation. Fifteen microliters of detection reagent was then added followed by further 60 min incubation at room temperature. Chemiluminescence was measured on a standard luminescence plate reader as relative light units (RLU). Basal RLU was defined as zero. […] Data were analyzed using the fourparameter variable-slope and allosteric EC50 shift nonlinear regression equations in Prism 5.0 (GraphPad, San Diego, CA).

CB2 [4] = target: T2, CB2; assay: cell-based; conditions: for EC50 / Emax: CB2, agonist mode; for EC50: read-out: CB2 Agonist mode cAMP EC50; for Emax: read-out: CB2 Agonist mode cAMP Emax
[5] = test system: excitatory postsynaptic currents (EPSCs)
[6] = test system: ocular hypertensive nee mice; conditions: GAT1102 0.2% alone, topical, at 1 and 12 hrs, n=6, P<0.05
Procedure: (§1) Normotensive C57Bl/6J mice and Sh3pxd2b mice were obtained from Jackson Laboratory (Bar Harbor, Maine). The Sh3pxd2b mice were bred in house, and their progenies with abnormal phenotypical morphology, identified as a nee mice, were used for experiments.
(§2) Drug was administered topically (5 μl/eye) to the right eyes, while the left eyes received vehicle control (2% DMSO+4% Tween-20 in Tocrisolve; 5 μl).
(§3) Mice were anesthetized with the isoflurane (3% induction, 1.5% maintenance). The intraocular pressure (TOP) was measured with a handheld rebound tonometer (Tonolab, Icare, Finland), calibrated to mouse. Ten recordings were taken for each eye and then averaged. The IOP readings were taken at time 0 (baseline), 1, 6 and 12 hrs after the drug/vehicle administration. All the measurements were taken at the same time of the day, in order to minimize variability related to diurnal changes in IOP.
(§4) Data was analyzed by GraphPad version 6.0 (GraphPad Software, Inc., La Jolla, CA). Paired t-tests were used to compare between eyes of the same animal. A P value of <0.05 was considered significant. […] Values are represented as a change in IOP from the baseline (time 0).

[7] = test system: normotensive C57Bl/6J mice; conditions: 0.2% GAT1102 combined with subthreshold 0.25% WIN55,212-2, topical, at 6 and 12 hrs, n=5, P<0.05
Procedure: as §1, §2, §3, §4

[8] = CB1, PAM mode, read-out: CB1 PAM mode cAMP EC50
[9] = CB1, agonist mode, read-out: CB1 Agonist mode cAMP EC50
[10] = read-out: CB1 Agonist mode cAMP Emax, CB1, agonist mode
[11] = read-out: CB1 PAM mode cAMP Emax, CB1, PAM mode
[12] = CB1, PAM mode, read-out: CB1 PAM mode β-Arrestin EC50
[13] = CB1, agonist mode, read-out: CB1 Agonist mode β-Arrestin EC50
[14] = read-out: CB1 Agonist mode β-Arrestin Emax
[15] = read-out: CB1 PAM mode β-Arrestin Emax

T1 sequence (P21554 whole entry): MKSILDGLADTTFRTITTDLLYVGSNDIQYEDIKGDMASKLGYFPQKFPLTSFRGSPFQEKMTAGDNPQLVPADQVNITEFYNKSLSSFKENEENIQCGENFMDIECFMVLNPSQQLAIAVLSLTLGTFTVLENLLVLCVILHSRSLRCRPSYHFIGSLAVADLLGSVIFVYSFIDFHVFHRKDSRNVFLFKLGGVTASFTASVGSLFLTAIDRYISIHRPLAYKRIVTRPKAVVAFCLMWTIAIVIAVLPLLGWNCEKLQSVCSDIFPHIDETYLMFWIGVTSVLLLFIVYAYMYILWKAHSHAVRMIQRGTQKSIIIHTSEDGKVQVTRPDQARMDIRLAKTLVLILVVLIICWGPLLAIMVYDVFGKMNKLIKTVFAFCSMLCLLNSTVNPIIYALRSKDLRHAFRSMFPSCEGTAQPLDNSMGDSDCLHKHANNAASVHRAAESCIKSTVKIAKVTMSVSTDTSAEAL
T2 sequence (P34972 whole entry, species assumed): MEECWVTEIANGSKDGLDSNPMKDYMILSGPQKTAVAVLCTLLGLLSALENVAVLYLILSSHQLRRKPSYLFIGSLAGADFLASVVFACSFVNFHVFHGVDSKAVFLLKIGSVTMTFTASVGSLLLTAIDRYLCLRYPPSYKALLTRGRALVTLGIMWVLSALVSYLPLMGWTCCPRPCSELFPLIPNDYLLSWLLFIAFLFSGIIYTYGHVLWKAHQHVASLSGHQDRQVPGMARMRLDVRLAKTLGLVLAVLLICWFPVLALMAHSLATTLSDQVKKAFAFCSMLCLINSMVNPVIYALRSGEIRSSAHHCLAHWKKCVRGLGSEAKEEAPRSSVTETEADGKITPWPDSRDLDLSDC

SMILES | EC50 (hCB1 [1]; [8]) [µM] | EC50 (hCB1 [1]; [9]) [µM] | Emax (hCB1 [1]; [10]) [%] | Emax (hCB1 [1]; [11]) [%] | EC50 (CB2 [2]) [µM] | Emax (CB2 [2]) [%] | EC50 (hCB1 [3]; [12]) [µM] | EC50 (hCB1 [3]; [13]) [µM] | Emax (hCB1 [3]; [14]) [%] | Emax (hCB1 [3]; [15]) [%] | EC50 (CB2 [4]) [µM] | Emax (CB2 [4]) [%] | CB2 Agonist mode cAMP Emax (CB2 [4]) | other results
O=C(O)CCC(c1ccccc1)c1cn(-c2ccccn2)c2ccccc12 (centres unmarked) [Compound 21, 4-Phenyl-4-(1-(pyridin-2-yl)-1H-indol-3-yl)butanoic acid] | 0.869 | 0.457 | 95 | 96 | > 10 | 0 | > 10 | > 10 | 0 | 0 | 1.11 | 85 | – | –
O=C(O)CCC(c1ccccc1)c1cn(-c2cccnc2)c2ccccc12 (centres unmarked) [Compound 22, 4-Phenyl-4-(1-(pyridin-3-yl)-1H-indol-3-yl)butanoic acid] | 1 | 0.831 | 87 | 109 | > 10 | 0 | > 10 | > 10 | 0 | 0 | 0.731 | 68 | – | –
O=C(O)CCC(c1ccccc1)c1cn(-c2ccncc2)c2ccccc12 (centres unmarked) [Compound 23, 4-Phenyl-4-(1-(pyridin-4-yl)-1H-indol-3-yl)butanoic acid] | 1.06 | 0.357 | 83 | 104 | > 10 | 0 | > 10 | > 10 | 0 | 0 | 0.57 | 78 | – | –
O=C(O)CCC(c1ccccc1)c1c[nH]c2ccccc12 (centres unmarked) [Compound 28, 4-(1H-Pndol-3-yl)-4-phenylbutanoic acid] | 4.35 | 9.81 | 60 | 71 | > 10 | 0 | > 10 | > 10 | 0 | 0 | > 10 | 29 | – | –
O=C(O)CCC(c1ccccc1)c1cn(C(=O)c2ccccc2)c2ccccc12 (centres unmarked) [Compound 29, 4-(1-Penzoyl-1H-indol-3-yl)-4-phenylbutanoic acid] | 0.709 | 0.596 | 92 | 114 | > 10 | 0 | > 10 | > 10 | 0 | 0 | 0.419 | 76 | – | –
CC(=O)CC(C)C(c1ccccc1)c1cn(-c2ccccc2)c2ccccc12 (centres unmarked) [Compound 41, 4-Methyl-5-phenyl-5-(1-phenyl-1H-indol-3-yl)pentan-2-one] | > 10 | > 10 | 0 | 0 | > 10 | 0 | > 10 | > 10 | 0 | 0 | > 10 | – | (34) % | –
CC(=O)CC(C)C(c1ccccc1)c1cn(-c2ccccc2)c2ccccc12 (centres unmarked) [Compound 42, 4-Methyl-5-phenyl-5-(1-phenyl-1H-indol-3-yl)pentan-2-one] | > 10 | – | – | – | > 10 | – | – | – | – | – | – | – | (0) % | CB1 PAM mode cAMP Emax (hCB1 [1]; CB1, PAM mode): (0) %; CB1 Agonist mode cAMP Emax (hCB1 [1]; CB1, agonist mode): (0) %; CB2 Agonist mode β-Arrestin Emax (CB2 [2]): 0%; CB1 PAM mode β-Arrestin Emax (hCB1 [3]; CB1, PAM mode): (0) %; CB1 Agonist mode β-Arrestin Emax (hCB1 [3]; CB1, agonist mode): (0) %
O=[N+]([O-])CC(c1ccccc1)c1c(-c2ccccc2)[nH]c2ccccc12 (centres unmarked) [GAT211, reference compound] | – | – | – | – | > 10 | – | – | – | – | – | > 10 | – | (0) % | CB1 PAM mode cAMP Emax (hCB1 [1]; CB1, PAM mode): (73) %; CB1 Agonist mode cAMP Emax (hCB1 [1]; CB1, agonist mode): (94) %; CB2 Agonist mode β-Arrestin Emax (CB2 [2]): 0%; CB1 PAM mode β-Arrestin Emax (hCB1 [3]; CB1, PAM mode): (59) %; CB1 Agonist mode β-Arrestin Emax (hCB1 [3]; CB1, agonist mode): (14) %
O=C(O)CCC(c1ccccc1)c1cn(-c2ccccc2)c2ccccc12 (centres unmarked) [GAT1102, 4-Phenyl-4-(1-phenyl-1H-indol-3-yl)butanoic acid] | – | – | – | – | – | – | – | – | – | – | – | – | – | agonist properties (direct inhibition of EPSCs) ([5]; 1 μM GAT1102): exhibited agonist properties in some cells; PAM effect on depolarization-induced suppression of excitation (DSE) ([5]; slowing recovery for DSE, in most cases occluded by direct inhibition): some evidence of a modest GAT1102 PAM effect; IOP change [6]: significantly decreased IOP; IOP compared to vehicle [7]: significantly lower
